In PMC12894115, “Discovery and Functional Characterization of SnFDHal, an Efficient Tryptophan 5-Halogenase from Streptomyces noursei” (Applied Biochemistry and Biotechnology, 2025):

Test system: T1, SnFDHal
T1 construct: full-length 1,551 bp gene (about 516 residues) cloned from genomic DNA, pET28a NdeI/XhoI, His6-tagged, E. coli BL21(DE3), Ni-NTA; residues F49, K75, I78, H92, F94, Q187, E359, S460
Assay: HPLC chlorination assay, Michaelis-Menten fit
Type: biochemical, Streptomyces noursei
Conditions: NADH, FAD, E. coli Fre reductase (FADH2 regeneration), NaCl; 100 mM phosphate pH 6.0, 35 °C, 30 min
Description: HPLC chlorination assay, Michaelis-Menten fit on SnFDHal

| Km | SMILES |
| --- | --- |
| 172 µM | N[C@@H](Cc1c[nH]c2c(Cl)cccc12)C(=O)O [7-Cl-Trp, 7-chlorotryptophan] |
| 945 µM | N[C@@H](Cc1c[nH]c2cc(Cl)ccc12)C(=O)O [6-Cl-Trp, 6-chlorotryptophan] |

| SMILES | Km |
| --- | --- |
| N[C@@H](Cc1c[nH]c2ccccc12)C(=O)O [L-Trp, L-tryptophan] | 622 µM |
